Assays:
293 cells [1] = test: Effect of replacement compounds on the growth of 293 cells in 293 SFM without transferrin, three passages; assay type: cell-based, human; conditions: third passage
CHO cells = test: Effect of replacement compounds on the growth of CHO cells in CD CHO medium without transferrin, three passages; assay type: cell-based, Chinese hamster; conditions: third passage
In short: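 CHO cells seeded at 1×10^5 viable cells/mL in transferrin-free CD CHO medium, 37 °C, 8% CO2, subcultured every 4 days for three passages. Compounds tested alone or complexed with ferric chloride or ferrous sulfate at 25, 50 and 100 μM; growth as mean percentage of the 5 μg/mL holo-transferrin control at the third passage, duplicate cultures.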

Sp2/0 cells = test: Effect of replacement compounds on the growth of Sp2/0 cells in CD Hybridoma medium without transferrin, three passages; assay type: cell-based; conditions: third passage
293 cells [2] = test: β-galactosidase expression after transfection (pCMV-SPORT-β-gal, LIPOFECTAMINE 2000) of 293 cells in monolayer culture, 24-well plates; assay type: cell-based, human; conditions: Table 8, replacement compounds 25 μM in test media, 24 hrs post-transfection
Method: When cultured in suspension, cells were split to 3×10^5 viable cells per ml at each passage. On the week of transfection cells were seeded at 3×10^5 viable cells per ml. After ˜48 hrs of growth (day 2) cells were vortexed for 30 seconds and counted and appropriate volumes used for transfection as described in procedures below.
In addition, the base media comprises 2.4 g/L NaHCO3, 2.98 g/L Hepes, 4 mM L-glutamine and 3 ml/L PLURONIC F-68 (Invitrogen Corp., Carlsbad, Calif.).
The osmolarity is adjusted to from about 275-310 mOsm, preferably about 280 mOsm and the pH is adjusted to from about 7.0 to about 7.45 preferably about 7.4 respectively.
Three wells were set up for each treatment. A volume of media corresponding to 3×10^6 viable cells was centrifuged. The supernatant was removed and the cells re-suspended in 600 μl test media. Each well of a 24 well plate received 200 μl of the re-suspended cells.
To prepare the nucleic acid for the transfection experiments, 93 μl test media+3 μl DNA+24 μl LIPOFECTAMINE 2000 were combined in a microfuge tube and complexed for 30 minutes. A 40 μl aliquot of complex was added to each well. 250 μl test media was added to each well five hours after addition of complex. The final cell concentration was 1×10^6 viable cells per well; the final DNA concentration was 1 μg per 1×10^6 viable cells and the final LIPOFECTAMINE 2000 concentration was 8 μl per 1×10^6 viable cells.
24 hrs post-transfection, samples were collected for β-galactosidase quantitation. The contents of duplicate wells were pooled (i.e. ˜2×10^6 cells for the assay) for each sample and transferred to a microfuge tube. The cells were centrifuged, the supernatant was removed and the cells were re-suspended in 1 ml of D-PBS. The cells were pelleted a second time and re-suspended in 1 ml of D-PBS. The samples were then stored at −70° C. Prior to the assay for β-galactosidase, samples were freeze-thawed a total of five times.
293 cells were grown in monolayer culture in the presence of the various replacement compounds indicated and transfection experiments performed as described above. The results are shown in Table 8 and the values are β-galactosidase activity expressed as nanograms of β-galactosidase per 2×10^6 cells. A comparison was made between the transfection efficiency of DNA complexes formed in D-MEM medium and DNA complexes formed in test medium. […]
For cells transfected in 24-well plates, cells densities used were 1×10^6 viable cells per well.

[3] = 25 μM, control 5 μg/mL human holo-transferrin, iron equimolar where combined
[4] = 50 μM, control 5 μg/mL human holo-transferrin
[5] = 100 μM, control 5 μg/mL human holo-transferrin
[6] = 25 μM, control 5 μg/mL human holo-transferrin

Row | Substance | mean percentage of control growth (293 cells [1]; 5 μM) | mean percentage of control growth (293 cells [1]; 10 μM) | mean percentage of control growth (293 cells [1]; 20 μM) | mean percentage of control growth (CHO cells; 5 μM) | mean percentage of control growth (CHO cells; 10 μM) | mean percentage of control growth (CHO cells; 20 μM) | mean percentage of control growth (Sp2/0 cells; 5 μM) | mean percentage of control growth (Sp2/0 cells; 10 μM) | mean percentage of control growth (Sp2/0 cells; 20 μM) | β-galactosidase activity; D-MEM used for complexing, Test media to re-suspend cells (293 cells [2]) | β-galactosidase activity; Test Media used for complexing and to re-suspend cells (293 cells [2]) | mean percentage of control growth (293 cells [1]; [3]) | mean percentage of control growth (293 cells [1]; [4]) | mean percentage of control growth (293 cells [1]; [5]) | mean percentage of control growth (CHO cells; [6]) | mean percentage of control growth (CHO cells; 50 μM) | mean percentage of control growth (CHO cells; 100 μM) | mean percentage of control growth (Sp2/0 cells; [6]) | mean percentage of control growth (Sp2/0 cells; 50 μM) | mean percentage of control growth (Sp2/0 cells; 100 μM)
1 | Deferoxamine Mesylate•Ferric Chloride | 101 percentage of control growth | 120 percentage of control growth | 127 percentage of control growth | 50 percentage of control growth | 74 percentage of control growth | 52 percentage of control growth | 0 percentage of control growth | 0 percentage of control growth | 0 percentage of control growth | 154 nanograms of β-galactosidase per 2×10^6 cells | 301 nanograms of β-galactosidase per 2×10^6 cells |  |  |  |  |  |  |  |  | 
2 | Ferrous Gluconate•Ascorbic Acid Phosphate |  |  |  |  |  |  |  |  |  | 116 nanograms of β-galactosidase per 2×10^6 cells | 275 nanograms of β-galactosidase per 2×10^6 cells | 86 percentage of control growth | 109 percentage of control growth | 101 percentage of control growth | 91 percentage of control growth | 61 percentage of control growth | 28 percentage of control growth | 92 percentage of control growth | 94 percentage of control growth | 93 percentage of control growth
3 | Nitriloacetic Acid•Ferric Chloride |  |  |  |  |  |  |  |  |  | 45 nanograms of β-galactosidase per 2×10^6 cells | 33 nanograms of β-galactosidase per 2×10^6 cells | 100 percentage of control growth | 118 percentage of control growth | 74 percentage of control growth | 127 percentage of control growth | 107 percentage of control growth | 107 percentage of control growth | 88 percentage of control growth | 87 percentage of control growth | 70 percentage of control growth

Source: patent publication US9879243B2, “Culture medium for cell growth and transfection” (LIFE TECHNOLOGIES CORPORATION, priority 2001, dated 2018)
